{"source": "ChEMBL document CHEMBL5260833", "about": "“An overview of quinazolines: Pharmacological significance and recent developments” (Eur J Med Chem, 2018)", "key": {"[1]": {"biological_target": "Tubulin", "assay": "Inhibition of tubulin polymerization (unknown origin) incubated for 15 mins followed by GTP addition and measured for 20 mins by spectrophotometry", "format": "protein-complex assay, Homo sapiens"}, "[2]": {"tested_on": "CA46", "assay": "Cell cycle arrest in human CA46 cells assessed as reduction in G2/M phase at 10 uM incubated for 24 hrs relative to control", "format": "functional"}, "[3]": {"tested_on": "MCF7", "assay": "Cell cycle arrest in human MCF7 cells assessed as reduction in G2/M phase at 10 uM G2/M phase incubated for 24 hrs relative to control", "format": "functional"}, "[4]": {"tested_on": "MCF7", "assay": "Anticancer activity against human MCF7 cell assessed as cell growth inhibition measured after 48 hrs by SRB assay", "format": "functional, cell-based", "settings": "MCF7, 48 h"}, "[5]": {"assay": "Cytotoxicity against human CEM/ADR5000 cells assessed as reduction in cell growth", "format": "toxicity, cell-based"}, "[6]": {"tested_on": "K562", "assay": "Anticancer activity against human K562 cells assessed as cell growth inhibition", "format": "functional, cell-based"}, "[7]": {"tested_on": "Rattus norvegicus", "assay": "Inhibition of AII-induced hypertension in rat assessed as vasoconstrictor at 3 mg/kg, po measured after 2 hrs", "format": "functional"}, "[8]": {"tested_on": "Rattus norvegicus", "assay": "Inhibition of AII-induced pressor response in normotensive conscious rat administered intravenously", "format": "functional", "settings": "route iv"}, "[9]": {"tested_on": "Rattus norvegicus", "assay": "Inhibition of AII-induced pressor response in normotensive conscious rat administered orally", "format": "functional", "settings": "route po"}, "[10]": {"tested_on": "Ovarian carcinoma cell", "assay": "Anticancer activity against human Ovarian carcinoma cell assessed as cell growth inhibition", "format": "functional", "settings": "read-out: ED50 (the source's name)"}, "[11]": {"assay": "Anticancer activity against human Epidermoid carcinoma cell line assessed as cell growth inhibition", "format": "functional", "settings": "read-out: ED50 (the source's name)"}}, "data": [{"compound": "O=c1c2cc(Cl)ccc2nc(/C=C/c2ccccc2)n1-c1ncccn1", "values": [{"measurement": "IC50", "setting": "[1]", "value": 5980, "unit": "nM"}, {"measurement": "inhibition at 10 µM", "setting": "[2]", "value": 66, "unit": "%"}, {"measurement": "inhibition at 10 µM", "setting": "[3]", "value": 20, "unit": "%"}, {"measurement": "IC50", "setting": "[4]", "value": 310, "unit": "nM"}]}, {"compound": "C[C@H]1[C@H](OC(=O)CCC(=O)O)O[C@@H]2O[C@@]3(C)CC[C@H]4[C@H](C)CC[C@@H]1[C@@]24OO3", "note": "[ARTESUNATE]", "values": [{"measurement": "EC50", "setting": "[5]", "value": 500, "unit": "nM"}]}, {"compound": "CCN(CC)C(=S)SCc1ccc2nc(C)nc(O)c2c1", "values": [{"measurement": "IC50", "setting": "[6]", "value": 500, "unit": "nM"}]}, {"compound": "CCCCc1nc2ccc([C@H]3OC[C@H]4[C@@H]3ON3[C@@H]4CCC3(C)C)cc2c(=O)n1Cc1ccc(-c2ccccc2-c2nn[nH]n2)cc1", "values": [{"measurement": "Activity", "setting": "[7]", "value": 70, "unit": "mmHg"}]}, {"compound": "CCCCc1nc2ccc(C(C)C)cc2c(=O)n1Cc1ccc(-c2ccccc2S(=O)(=O)NC(=O)C2CC2)cc1", "values": [{"measurement": "ED50", "setting": "[8]", "value": 0.25, "unit": "mg/kg"}, {"measurement": "ED50", "setting": "[9]", "value": 0.68, "unit": "mg/kg"}]}, {"compound": "COc1cccc(-c2nc(O)c3cc(OC)ccc3n2)c1", "values": [{"measurement": "EC50", "setting": "[10]", "value": "< 5", "unit": "µg/mL"}, {"measurement": "EC50", "setting": "[11]", "value": "< 5", "unit": "µg/mL"}]}]}
